# Test results taken from the Bradley open melting point set (2014).
# Several values for one entry are separate records, joined by “and”; a condition that tells them apart may be missing. Equal values may be shown once. Where a name gives a salt, the structure may show the parent alone.
row,melting point,Compound
1,147 °C,CC(C)(C)OC(=O)NCC(=O)N(Cc1ccco1)C(C(=O)NCc1ccccc1)c1ccccc1 (configuration not stated) [Ugi product 108C (UC)]
2,194 °C,CN(C)c1ccc(C(C(=O)NC(C)(C)C)N(C)C(=O)CCCc2ccc3ccc4cccc5ccc2c3c45)cc1 (configuration not stated) [Ugi product 171K (UC)]
3,138 °C,CCCCNC(=O)C(c1cc(OC)cc(OC)c1)N(Cc1ccccc1)C(=O)C#Cc1ccccc1 (configuration not stated) [Ugi product 173G (UC)]
4,191 °C,O=C1O[C@H]([C@@H](O)CO)C(O)=C1O [Vitamin C]
5,101 °C,c1ccc2c(c1)Cc1ccccc1O2 [Xanthene]
6,286 °C,c1cc2ccc1CCc1ccc(cc1)CC2 [[2.2]paracyclophane]
7,116 °C,O=C(O)CSc1ccc(C(F)(F)F)cc1 [[4-(trifluoromethyl)phenylthio]acetic acid]
8,65 °C,C/C(=C(/C)c1ccccc1)c1ccccc1 [[(1E)-1-Methyl-2-phenyl-1-propenyl]benzene]
9,199 °C,CC(=NNC(=O)c1ccncc1)c1ccco1 [a-Methylfurfurylidenehydrazide of Isonicotinic Acid]
10,119 °C,CCCC(=O)Nc1ccc(OCC(O)CNC(C)C)c(C(C)=O)c1 (configuration not stated) [acebutolol]
11,109 °C,CCC(Br)(CC)C(=O)NC(=O)NC(C)=O [acecarbromal]
12,80 °C,CC(N)=O [acetamide]
13,187 °C,CC(=O)Nc1ccc(OC(=O)c2ccccc2O)cc1 [acetaminosalol]
14,188 °C,CC(=O)c1ccc(S(=O)(=O)NC(=O)NC2CCCCC2)cc1 [acetohexamide]
15,255 °C,Nc1nc2c(ncn2COCCO)c(=O)[nH]1 [acyclovir]
16,234 °C,Nc1ncnc2c1ncn2[C@@H]1O[C@H](CO)[C@@H](O)[C@H]1O [adenosine]
17,144 °C,CN(C)CC(=O)N1c2ccccc2Sc2ccccc21 [ahistan]
18,92.5 °C,C=CCOc1ccc(CC(=O)O)cc1Cl [alclofenac] [listing 1 of 2 here]
19,92 °C,C=CCOc1ccc(CC(=O)O)cc1Cl [alclofenac] [listing 2 of 2 here]
20,95 °C,C=CCc1cc(OC)c(O)c(C(=O)NCCO)c1 [alibendol]
21,81 °C,"CC(C)(C(=O)O)c1ccccc1 [alpha,alpha-dimethylphenylacetic acid]"
22,80 °C,O=C(O)C(F)c1ccccc1 (stereo not drawn) [alpha-fluorophenylacetic acid]
23,77 °C,Cc1ccc(CS(=O)(=O)Cl)cc1 [alpha-p-xylenesulfonyl chloride]
24,-62 °C,CC1=CC[C@@H]2C[C@H]1C2(C)C [alpha-pinene]
25,108 °C,O=C2\C(=C(/N(N2c1ccccc1)C)C)N(C)C [aminopyrine]
26,183 °C,Nc1cccc(-n2ccccc2=O)c1 [amphenidone]
27,200 °C,CC1(C)S[C@@H]2[C@H](NC(=O)[C@H](N)c3ccccc3)C(=O)N2[C@H]1C(=O)O [ampicillin]
28,216 °C (4×) and 218 °C,c1ccc2cc3ccccc3cc2c1 [anthracene]

row,melting point,Compound
1,111 °C and 112 °C and 109 °C,O=C2\C=C(/N(N2c1ccccc1)C)C [antipyrine]
2,275 °C,NC(CC(=O)O)C(=O)O (configuration not stated) [aspartic acid]
3,138 °C,CC(=O)Oc1ccccc1C(=O)O [aspirin] [listing 1 of 2 here]
4,142 °C,CC(=O)Oc1ccccc1C(=O)O [aspirin] [listing 2 of 2 here]
5,136 °C,O=Cc1ccc(O)cc1O [b-Resorcylaldehyde]
6,-61 °C,C=C1CCC2CC1C2(C)C (configuration not stated) [b-pinene]
7,149 °C,"CNC(=O)c1cc([N+](=O)[O-])cc([N+](=O)[O-])c1 [benzamide, N-methyl-3,5-dinitro-]"
8,129 °C and 130 °C,NC(=O)c1ccccc1 [benzamide]
9,217 °C,OB(O)c1ccccc1 [benzeneboronic acid]
10,48 °C,O=S(=O)(O)c1ccccc1 [benzenesulfonic acid]
11,19 °C,ClC(c1ccccc1)c1ccccc1 [benzhydryl chloride]
12,100 °C,OCc1cc2ccccc2s1 [benzo[b]thiophene-2-methanol]
13,92 °C,CCOC(=O)c1ccc(N)cc1 [benzocaine]
14,122 °C,O=C(O)c1ccccc1 [benzoic acid]
15,135 °C,O=C(c1ccccc1)C(O)c1ccccc1 (configuration not stated) [benzoin] [listing 1 of 2 here]
16,134 °C,O=C(c1ccccc1)C(O)c1ccccc1 (configuration not stated) [benzoin] [listing 2 of 2 here]
17,138 °C,N#Cc1ccc2ncsc2c1 [benzothiazole-6-carbonitrile]
18,59 °C,CC(=O)CC(=O)c1ccccc1 [benzoylacetone]
19,-51 °C,CC(=O)OCc1ccccc1 [benzyl acetate]
20,-15 °C,OCc1ccccc1 [benzyl alcohol]
21,19 °C,O=C(OCc1ccccc1)c1ccccc1 [benzyl benzoate]
22,-51 °C,CC(=O)OCc1ccccc1 [benzyl_acetate]
23,19 °C,O=C(OCc1ccccc1)c1ccccc1 [benzyl_benzoate]
24,-52 °C,COCc1ccccc1 [benzyl_methyl_ether]
25,186 °C,CC(C)(Oc1ccc(CCNC(=O)c2ccc(Cl)cc2)cc1)C(=O)O [bezafibrate]
26,179 °C,OB(O)c1ccccc1-c1ccccc1 [biphenyl-2-boronic acid]
27,228 °C,NC(=O)c1ccc(-c2ccccc2)cc1 [biphenyl-4-carboxamide]

# More lines, now with the values behind:
row,Compound,melting point
1,O=S(=O)(O)C(F)(F)F [Trifluoromethanesulfonic acid],-40 °C
2,O=P(Oc1ccccc1)(Oc1ccccc1)Oc1ccccc1 [Triphenyl phosphate],50.5 °C
3,c1ccc(P(c2ccccc2)c2ccccc2)cc1 [Triphenylphosphine],80.5 °C
4,CCCCC(CC)COP(=O)(OCC(CC)CCCC)OCC(CC)CCCC (configuration not stated) [Tris(2-ethylhexyl) phosphate],-70 °C
5,Cc1ccccc1OP(=O)(Oc1ccccc1C)Oc1ccccc1C [Tris(2-methylphenyl) phosphate],-33 °C
6,CCCCCCCCCCCO [Undecan-1-ol],11 °C
7,CCCCCCCCCCC(=O)O [Undecanoic acid],28.5 °C
8,CCCCC#N [Valeronitrile],-96 °C
9,"ClCc1cccc(CCl)c1 [a,a'-dichloro-m-xylene]",36 °C
10,"ClC(Cl)c1ccccc1 [a,a-dichlorotoluene]",-16 °C
11,CCOC(C)OCC [acetaldehyde diethyl acetal],-100 °C
12,CC(=O)OC(C)=O [acetic anhydride],-73 °C
13,CC(C)=NO [acetone oxime],62 °C
14,CC(=O)Cl [acetyl chloride],-112 °C
15,C=CC(N)=O [acrylamide],84 °C
16,C=CC(=O)O [acrylic acid],13 °C
17,C=CC(=O)O [acrylic_acid],13 °C
18,O=C(O)C12CC3CC(CC(C3)C1)C2 [adamantane-1-carboxylic acid],175 °C
19,O=C(CS(=O)C(c1ccccc1)c1ccccc1)NO (configuration not stated) [adrafinil],159 °C
20,OC[C@H]1O[C@H](O)[C@H](O)[C@@H](O)[C@@H]1O [alpha-D-Glucopyranose],154 °C
21,CC(=O)OC[C@H]1O[C@H](OC(C)=O)[C@H](OC(C)=O)[C@@H](OC(C)=O)[C@@H]1OC(C)=O [alpha-D-glucose pentaacetate],111 °C
22,ClC1C(Cl)C(Cl)C(Cl)C(Cl)C1Cl (stereo not drawn) [alpha-hexachlorocyclohexane],160 °C
23,O=C1OC(c2ccc(O)c3ccccc23)(c2ccc(O)c3ccccc23)c2ccccc21 [alpha-naphtholphthalein],239 °C
24,CCCN(CCC)C(=O)Cc1c(-c2ccc(Cl)cc2)nc2ccc(Cl)cn12 [alpidem],140 °C

row,Compound,melting point
1,CC12CCC=C1C1CCC3CC(O)CCC3(C)C1CC2 (configuration not stated) [androst-14-en-3-ol],130 °C
2,CC12CCC3C(CCC4CCCCC43C)C1CC(=O)C2 (configuration not stated) [androstan-16-one],108 °C
3,N#Cc1c2ccccc2cc2ccccc12 [anthracene-9-carbonitrile],177 °C
4,Nc1ncnc2c1ncn2Cc1c(F)cccc1Cl [arprinocid],245 °C
5,COc1ccc(CCN2CCC(Nc3nc4ccccc4n3Cc3ccc(F)cc3)CC2)cc1 [astemizole],149 °C
6,OC(c1ccccc1)(c1ccccc1)C1CCNCC1 [azacyclonol],160 °C
7,CCCCNCC(O)c1ccc(O)cc1 (configuration not stated) [bamethan],124 °C
8,CN1CCC(N(Cc2ccccc2)c2ccccc2)CC1 [bamipine],114 °C
9,c1ccc(-c2ccnc3c2ccc2c(-c4ccccc4)ccnc23)cc1 [bathophenanthroline],220 °C
10,"C(=Cc1ccccc1)Cc1ccccc1 [benzene, 1,1'-(1-propene-1,3-diyl)bis-]",155 °C
11,c1ccc2c(c1)OCCOCCOCCOCCO2 [benzo-15-crown-5],80 °C
12,SCc1ccccc1 [benzyl mercaptan],-29 °C and -29.2 °C
13,NCc1ccccc1 [benzylamine],10 °C
14,"O=[N+]([O-])/C=C/c1cccc([N+](=O)[O-])c1 [beta,3-dinitrostyrene]",126 °C
15,"O=[N+]([O-])/C=C/c1ccc([N+](=O)[O-])cc1 [beta,4-dinitrostyrene]",204 °C
16,OB(O)c1ccc(-c2ccccc2)cc1 [biphenyl-4-boronic acid],243 °C
17,O=Cc1ccc(-c2ccccc2)cc1 [biphenyl-4-carboxaldehyde],59 °C
18,ClCCOCCCl [bis(2-chloroethyl) ether],-50 °C
19,CC1(C)COB(B2OCC(C)(C)CO2)OC1 [bis(neopentyl glycolato)diboron],183 °C
20,Fc1c(F)c(F)c(P(c2ccccc2)c2c(F)c(F)c(F)c(F)c2F)c(F)c1F [bis(pentafluorophenyl)phenylphosphine],62 °C
21,C[Si](C)(C)OS(=O)(=O)O[Si](C)(C)C [bis(trimethylsilyl) sulfate],46 °C
22,CCCCC(CC)COC(=O)c1ccccc1C(=O)OCC(CC)CCCC (configuration not stated) [bis-2-ethylhexyl_phthalate],-50 °C
23,Brc1ccc(Oc2ccc(Br)cc2)cc1 [bis-p-bromophenyl_ether],60 °C
